Reference: patent US6861390B2, “Derivatives of UK-2A” (priority 2001, dated 2005)

Columns and labels:
[1] = tested on: Erysiphe graminis (ERYSGT); assay: Powdery Mildew of Wheat, whole plant 24 Hour Protectant (T1); conditions: Blumeria graminis, in Triticum aestivum, read-out: T1 ERYSGT in vivo 1 Day Protectant, control of fungal infection
[2] = tested on: Puccinia recondita (PUCCRT); assay: Brown Rust of Wheat, whole plant 24 Hour Protectant (T5); conditions: wheat (cultivar Yuma), sprayed at 100 ppm, inoculated after 24 hours, read-out: T5 PUCCRT in vivo 1 Day Protectant, control of fungal infection
[3] = tested on: Leptosphaeria nodorum (LEPTNO); assay: Glume Blotch of Wheat, whole plant 24 Hour Protectant (T2); conditions: Parastagonospora nodorum; wheat (cultivar Yuma), sprayed at 100 ppm, inoculated after 24 hours; read-out: T2 LEPTNO in vivo 1 Day Protectant, control of fungal infection
[4] = tested on: Phytophthora infestans (PHYTIN); assay: whole plant or invertebrate; conditions: in Solanum lycopersicum, 24 h, read-out: T3 PHYTIN in vivo 1 Day Protectant, control of fungal infection
[5] = tested on: Rhizoctonia solani (RHIZSO); assay: microbe, parasite or virus in culture; assay type: cell-based; conditions: read-out: T10 RHIZSO in vitro Growth Inhibition
[6] = tested on: Stagonospora nodorum (Leptosphaeria nodorum, LEPTNO); assay: microbe, parasite or virus in culture; assay type: cell-based; conditions: Parastagonospora nodorum, read-out: T7 LEPTNO in vitro Growth Inhibition
[7] = tested on: Septoria tritici (SEPTTR); assay: Leaf Blotch of Wheat, whole plant 24 Hour Protectant (T6); conditions: Zymoseptoria tritici; wheat (cultivar Monon), sprayed at 100 ppm, inoculated after 24 hours; read-out: T6 SEPTTR in vivo 1 Day Protectant, control of fungal infection
Ustilago maydis (USTIMA) = assay: microbe, parasite or virus in culture; assay type: cell-based; conditions: Mycosarcoma maydis, read-out: T12 USTIMA in vitro Growth Inhibition
[8] = tested on: Mycosphaerella graminicola (Septoria tritici, SEPTTR); assay: microbe, parasite or virus in culture; assay type: cell-based; conditions: Zymoseptoria tritici, read-out: T11 SEPTTR in vitro Growth Inhibition
[9] = tested on: Phytophthora infestans (PHYTIN); assay: microbe, parasite or virus in culture; assay type: cell-based; conditions: in Secale cereale, read-out: T8 PHYTIN in vitro Growth Inhibition
[10] = tested on: Magnaporthe grisea (Pyricularia oryzae, PYRIOR); assay: microbe, parasite or virus in culture; assay type: cell-based; conditions: read-out: T9 PYRIOR in vitro Growth Inhibition

SMILES: COc1ccnc(C(=O)N[C@H]2COC(=O)[C@H](Cc3ccccc3)[C@@H](OC(=O)C(C)C)[C@H](C)OC2=O)c1OC(C)OC(C)=O (stereo partly drawn) [Compound 25]
- pest or weed control at 100 ppm [1]: < 25%
- pest or weed control at 100 ppm [2]: 75 to 100%
- pest or weed control at 100 ppm [3]: 75 to 100%
- pest or weed control at 100 ppm [4]: < 25%
- inhibition at 25 ppm [5]: < 80%
- inhibition at 25 ppm [6]: > 80%
- pest or weed control at 100 ppm [7]: 75 to 100%
- inhibition at 25 ppm (Ustilago maydis (USTIMA)): > 80%
- inhibition at 25 ppm [8]: > 80%
- melting point: 58 to 65 °C
- inhibition at 25 ppm [9]: < 80%
- inhibition at 25 ppm [10]: < 80%

SMILES: COc1ccnc(C(=O)N[C@H]2COC(=O)[C@H](Cc3ccccc3)[C@@H](OC(=O)C(C)C)[C@H](C)OC2=O)c1OCOC(=O)C1CC1 [Compound 26]
- pest or weed control at 100 ppm [1]: 25 to 74%
- pest or weed control at 100 ppm [2]: 75 to 100%
- pest or weed control at 100 ppm [3]: 75 to 100%
- pest or weed control at 100 ppm [4]: < 25%
- inhibition at 25 ppm [5]: < 80%
- inhibition at 25 ppm [6]: > 80%
- pest or weed control at 100 ppm [7]: 75 to 100%
- inhibition at 25 ppm (Ustilago maydis (USTIMA)): < 80%
- inhibition at 25 ppm [8]: < 80%
- melting point: 152 to 153 °C
- inhibition at 25 ppm [9]: < 80%
- inhibition at 25 ppm [10]: < 80%

SMILES: COCCC(=O)OCOc1c(OC)ccnc1C(=O)N[C@H]1COC(=O)[C@H](Cc2ccccc2)[C@@H](OC(=O)C(C)C)[C@H](C)OC1=O [Compound 27]
- pest or weed control at 100 ppm [1]: 75 to 100%
- pest or weed control at 100 ppm [2]: 75 to 100%
- pest or weed control at 100 ppm [3]: 75 to 100%
- pest or weed control at 100 ppm [4]: < 25%
- inhibition at 25 ppm [5]: < 80%
- inhibition at 25 ppm [6]: > 80%
- pest or weed control at 100 ppm [7]: 75 to 100%
- inhibition at 25 ppm (Ustilago maydis (USTIMA)): < 80%
- inhibition at 25 ppm [8]: > 80%
- melting point: 84 to 86 °C
- inhibition at 25 ppm [9]: < 80%
- inhibition at 25 ppm [10]: > 80%

SMILES: CCOCCC(=O)OCOc1c(OC)ccnc1C(=O)N[C@H]1COC(=O)[C@H](Cc2ccccc2)[C@@H](OC(=O)C(C)C)[C@H](C)OC1=O [Compound 28]
- pest or weed control at 100 ppm [1]: 25 to 74%
- pest or weed control at 100 ppm [2]: 75 to 100%
- pest or weed control at 100 ppm [3]: 75 to 100%
- pest or weed control at 100 ppm [4]: < 25%
- inhibition at 25 ppm [5]: > 80%
- inhibition at 25 ppm [6]: > 80%
- pest or weed control at 100 ppm [7]: 75 to 100%
- inhibition at 25 ppm (Ustilago maydis (USTIMA)): > 80%
- inhibition at 25 ppm [8]: > 80%
- melting point: 50 to 55 °C
- inhibition at 25 ppm [9]: < 80%
- inhibition at 25 ppm [10]: > 80%

SMILES: COc1ccnc(C(=O)N[C@H]2COC(=O)[C@H](Cc3ccccc3)[C@@H](OC(=O)C(C)C)[C@H](C)OC2=O)c1OCOC(=O)c1ccccc1 [Compound 29]
- pest or weed control at 100 ppm [1]: 25 to 74%
- pest or weed control at 100 ppm [2]: 75 to 100%
- pest or weed control at 100 ppm [3]: 75 to 100%
- pest or weed control at 100 ppm [4]: < 25%
- inhibition at 25 ppm [5]: < 80%
- inhibition at 25 ppm [6]: > 80%
- pest or weed control at 100 ppm [7]: 75 to 100%
- inhibition at 25 ppm (Ustilago maydis (USTIMA)): < 80%
- inhibition at 25 ppm [8]: < 80%
- melting point: 65 to 70 °C
- inhibition at 25 ppm [9]: < 80%
- inhibition at 25 ppm [10]: < 80%

SMILES: CCOCC(=O)OCOc1c(OC)ccnc1C(=O)N[C@H]1COC(=O)[C@H](Cc2ccccc2)[C@@H](OC(=O)C(C)C)[C@H](C)OC1=O [Compound 31]
- pest or weed control at 100 ppm [1]: 25 to 74%
- pest or weed control at 100 ppm [2]: 75 to 100%
- pest or weed control at 100 ppm [3]: 75 to 100%
- pest or weed control at 100 ppm [4]: < 25%
- inhibition at 25 ppm [5]: < 80%
- inhibition at 25 ppm [6]: > 80%
- pest or weed control at 100 ppm [7]: 75 to 100%
- inhibition at 25 ppm (Ustilago maydis (USTIMA)): < 80%
- inhibition at 25 ppm [8]: < 80%
- melting point: 79 to 81 °C
- inhibition at 25 ppm [9]: < 80%
- inhibition at 25 ppm [10]: > 80%

SMILES: COc1ccnc(C(=O)N[C@H]2COC(=O)[C@H](Cc3ccccc3)[C@@H](OC(=O)C(C)C)[C@H](C)OC2=O)c1OCOC(=O)C1CCCC1 [Compound 33]
- pest or weed control at 100 ppm [1]: 25 to 74%
- pest or weed control at 100 ppm [2]: 75 to 100%
- pest or weed control at 100 ppm [3]: 75 to 100%
- pest or weed control at 100 ppm [4]: < 25%
- inhibition at 25 ppm [5]: < 80%
- inhibition at 25 ppm [6]: > 80%
- pest or weed control at 100 ppm [7]: 75 to 100%
- inhibition at 25 ppm (Ustilago maydis (USTIMA)): < 80%
- inhibition at 25 ppm [8]: < 80%
- melting point: 128 to 129 °C
- inhibition at 25 ppm [9]: < 80%
- inhibition at 25 ppm [10]: > 80%
